Laboratory results reported in patent US9663543B2 (priority 2014, dated 2017).

Each molecule was assayed against Human factor D (Homo sapiens (Human), UniProt P00746).
Chain of Human factor D (P00746 26-253 limits assumed): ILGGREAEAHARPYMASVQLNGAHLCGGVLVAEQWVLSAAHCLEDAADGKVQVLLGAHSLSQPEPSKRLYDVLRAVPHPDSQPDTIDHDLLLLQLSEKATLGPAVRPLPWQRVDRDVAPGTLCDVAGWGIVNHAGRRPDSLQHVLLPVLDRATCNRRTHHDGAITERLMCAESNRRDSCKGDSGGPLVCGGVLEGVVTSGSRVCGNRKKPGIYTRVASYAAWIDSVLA
Type: biochemical
In the case of `CCOP(=O)(OCC)c1ccc2c(C(C)=O)cn(CC(=O)N3C[C@H](F)C[C@H]3C(=O)NCc3cccc(Cl)c3F)c2c1` [Compound 1, diethyl 3-acetyl-1-(2-((2S,4R)-2-(3-chloro-2-fluorobenzylcarbamoyl)-4-fluoropyrrolidin-1-yl)-2-oxoethyl)-1H-indol-6-ylphosphonate], the IC50 is reported as < 1 µM. `CCOP(=O)(O)c1ccc2c(C(C)=O)cn(CC(=O)N3C[C@H](F)C[C@H]3C(=O)NCc3cccc(Cl)c3F)c2c1` [Compound 2, ethyl hydrogen 3-acetyl-1-(2-((2S,4R)-2-(3-chloro-2-fluorobenzylcarbamoyl)-4-fluoropyrrolidin-1-yl)-2-oxoethyl)-1H-indol-6-ylphosphonate] was tested, and the IC50 was < 1 µM. With `CC(=O)c1cn(CC(=O)N2C[C@H](F)C[C@H]2C(=O)NCc2cccc(Cl)c2F)c2cc(P(=O)(O)O)ccc12` [Compound 3, 3-acetyl-1-(2-((2S,4R)-2-(3-chloro-2-fluorobenzylcarbamoyl)-4-fluoropyrrolidin-1-yl)-2-oxoethyl)-1H-indol-6-ylphosphonic acid] the IC50 was < 1 µM. In the case of `CC(=O)c1cn(CC(=O)N2C[C@H](F)C[C@H]2C(=O)NCc2cccc(Cl)c2F)c2cc(P(=O)(OCOC(=O)OC(C)C)OCOC(=O)OC(C)C)ccc12` [Compound 4, ((3-acetyl-1-(2-((2S,4R)-2-(3-chloro-2-fluorobenzylcarbamoyl)-4-fluoropyrrolidin-1-yl)-2-oxoethyl)-1H-indol-6-yl)phosphoryl)bis(oxy)bis (methylene) isopropyl dicarbonate], the IC50 is reported as < 1 µM. With `CCOP(=O)(OCOC(=O)OC(C)C)c1ccc2c(C(C)=O)cn(CC(=O)N3C[C@H](F)C[C@H]3C(=O)NCc3cccc(Cl)c3F)c2c1` (stereo partly drawn) [Compound 6, ((3-acetyl-1-(2-((2S,4R)-2-(3-chloro-2-fluorobenzylcarbamoyl)-4-fluoropyrrolidin-1-yl)-2-oxoethyl)-1H-indol-6-yl)(ethoxy)phosphoryloxy) methyl isopropyl carbonate] the IC50 was < 1 µM. `CC(=O)c1cn(CC(=O)N2[C@@H]3CCC[C@@H]3C[C@H]2C(=O)NCc2cccc(Cl)c2F)c2cc(P(=O)(O)O)ccc12` [Compound 7, 3-acetyl-1-(2-((2S,3aR,6aR)-2-(3-chloro-2-fluorobenzylcarbamoyl)hexa-hydrocyclopenta[b]pyrrol-1(2H)-yl)-2-oxoethyl)-1H-indol-6-ylphosphonic acid] was tested, and the IC50 was < 1 µM. With `CCOP(=O)(OCC)c1ccc2c(c1)c(C(C)=O)cn2CC(=O)N1C[C@H](F)C[C@H]1C(=O)NCc1cccc(Cl)c1F` [Compound 8, diethyl 3-acetyl-1-(2-((2S,4R)-2-(3-chloro-2-fluorobenzylcarbamoyl)-4-fluoropyrrolidin-1-yl)-2-oxoethyl)-1H-indol-5-ylphosphonate] the IC50 was < 1 µM. `CCOP(=O)(O)c1ccc2c(c1)c(C(C)=O)cn2CC(=O)N1C[C@H](F)C[C@H]1C(=O)NCc1cccc(Cl)c1F` [Compound 9, ethyl hydrogen 3-acetyl-1-(2-((2S,4R)-2-(3-chloro-2-fluorobenzylcarbamoyl)-4-fluoropyrrolidin-1-yl)-2-oxoethyl)-1H-indol-5-ylphosphonate] was tested, and the IC50 was > 10 µM. With `CC(=O)c1cn(CC(=O)N2C[C@H](F)C[C@H]2C(=O)NCc2cccc(Cl)c2F)c2ccc(P(=O)(O)O)cc12` [Compound 10, 3-acetyl-1-(2-((2S,4R)-2-(3-chloro-2-fluorobenzylcarbamoyl)-4-fluoropyrrolidin-1-yl)-2-oxoethyl)-1H-indol-5-ylphosphonic acid] the IC50 was < 1 µM. With `CCOC(=O)c1nn(CC(=O)N2C[C@H](F)C[C@H]2C(=O)NCc2cccc(Cl)c2F)c2cc(P(=O)(OCC)OCC)ccc12` [Compound 11, ethyl 1-(2-((2S,4R)-2-(3-chloro-2-fluorobenzylcarbamoyl)-4-fluoropyrrolidin-1-yl)-2-oxoethyl)-6-(diethoxyphosphoryl)-1H-indazole-3-carboxylate] the IC50 was > 10 µM. For `CCOP(=O)(OCC)c1ccc2c(C(=O)O)nn(CC(=O)N3C[C@H](F)C[C@H]3C(=O)NCc3cccc(Cl)c3F)c2c1` [Compound 12, 1-(2-((2S,4R)-2-(3-chloro-2-fluorobenzylcarbamoyl)-4-fluoropyrrolidin-1-yl)-2-oxoethyl)-6-(diethoxyphosphoryl)-1H-indazole-3-carboxylic acid], the IC50 was > 10 µM. `CCOP(=O)(OCC)c1ccc2c(C(=O)OC)cn(CC(=O)N3C[C@H](F)C[C@H]3C(=O)NCc3cccc(Cl)c3F)c2c1` [Compound 13, methyl 1-(2-((2S,4R)-2-(3-chloro-2-fluorobenzylcarbamoyl)-4-fluoropyrrolidin-1-yl)-2-oxoethyl)-6-(diethoxyphosphoryl)-1H-indole-3-carboxylate] was tested, and the IC50 was < 1 µM. `COC(=O)c1cn(CC(=O)N2C[C@H](F)C[C@H]2C(=O)NCc2cccc(Cl)c2F)c2cc(P(=O)(O)O)ccc12` [Compound 14, 1-(2-((2S,4R)-2-(3-chloro-2-fluorobenzylcarbamoyl)-4-fluoropyrrolidin-1-yl)-2-oxoethyl)-3-(methoxycarbonyl)-1H-indol-6-ylphosphonic acid] was tested, and the IC50 was < 1 µM. For `CCOP(=O)(OCC)c1ccc2c(C(N)=O)cn(CC(=O)N3C[C@H](F)C[C@H]3C(=O)NCc3cccc(Cl)c3F)c2c1` [Compound 15, diethyl 3-carbamoyl-1-(2-((2S,4R)-2-(3-chloro-2-fluorobenzylcarbamoyl)-4-fluoropyrrolidin-1-yl)-2-oxoethyl)-1H-indol-6-ylphosphonate], the IC50 was < 1 µM. `NC(=O)c1cn(CC(=O)N2C[C@H](F)C[C@H]2C(=O)NCc2cccc(Cl)c2F)c2cc(P(=O)(O)O)ccc12` [Compound 16, 3-carbamoyl-1-(2-((2S,4R)-2-(3-chloro-2-fluorobenzylcarbamoyl)-4-fluoropyrrolidin-1-yl)-2-oxoethyl)-1H-indol-6-ylphosphonic acid] was tested, and the IC50 was < 1 µM. For `CCOP(=O)(OCC)c1ccc2c(C(N)=O)nn(CC(=O)N3C[C@H](F)C[C@H]3C(=O)NCc3cccc(Cl)c3F)c2c1` [Compound 17, diethyl 3-carbamoyl-1-(2-((2S,4R)-2-(3-chloro-2-fluorobenzylcarbamoyl)-4-fluoropyrrolidin-1-yl)-2-oxoethyl)-1H-indazol-6-ylphosphonate], the IC50 was < 1 µM. For `NC(=O)c1nn(CC(=O)N2C[C@H](F)C[C@H]2C(=O)NCc2cccc(Cl)c2F)c2cc(P(=O)(O)O)ccc12` [Compound 18, 3-carbamoyl-1-(2-((2S,4R)-2-(3-chloro-2-fluorobenzylcarbamoyl)-4-fluoropyrrolidin-1-yl)-2-oxoethyl)-1H-indazol-6-ylphosphonic acid], the IC50 was < 1 µM. With `CC(=O)c1cn(CC(=O)N2C[C@H](F)C[C@H]2C(=O)NCc2cccc(Cl)c2F)c2cc(P(=O)(OCC(F)(F)F)OCC(F)(F)F)ccc12` [Compound 19, bis(2,2,2-trifluoroethyl) 3-acetyl-1-(2-((2S,4R)-2-(3-chloro-2-fluorobenzylcarbamoyl)-4-fluoropyrrolidin-1-yl)-2-oxoethyl)-1H-indol-6-ylphosphonate] the IC50 was < 1 µM. In the case of `CCCCOP(=O)(OCCCC)c1ccc2c(C(C)=O)cn(CC(=O)N3C[C@H](F)C[C@H]3C(=O)NCc3cccc(Cl)c3F)c2c1` [Compound 20, dibutyl 3-acetyl-1-(2-((2S,4R)-2-(3-chloro-2-fluorobenzylcarbamoyl)-4-fluoropyrrolidin-1-yl)-2-oxoethyl)-1H-indol-6-ylphosphonate], the IC50 is reported as < 1 µM. With `CCCCOP(=O)(O)c1ccc2c(C(C)=O)cn(CC(=O)N3C[C@H](F)C[C@H]3C(=O)NCc3cccc(Cl)c3F)c2c1` [Compound 21, butyl hydrogen 3-acetyl-1-(2-((2S,4R)-2-(3-chloro-2-fluorobenzylcarbamoyl)-4-fluoropyrrolidin-1-yl)-2-oxoethyl)-1H-indol-6-ylphosphonate] the IC50 was < 1 µM. For `CC(=O)c1cn(CC(=O)N2C[C@H](F)C[C@H]2C(=O)NCc2cccc(Cl)c2F)c2cc(P(=O)(O)OCOC(=O)OC(C)C)ccc12` [Compound 22, ((3-acetyl-1-(2-((2S,4R)-2-(3-chloro-2-fluorobenzylcarbamoyl)-4-fluoropyrrolidin-1-yl)-2-oxoethyl)-1H-indol-6-yl)(hydroxy)phosphoryloxy) methyl isopropyl carbonate], the IC50 was < 1 µM. In the case of `CCOP(=O)(c1ccccc1)c1ccc2c(C(C)=O)cn(CC(=O)N3C[C@H](F)C[C@H]3C(=O)NCc3cccc(Cl)c3F)c2c1` (stereo partly drawn) [Compound 23, ethyl 3-acetyl-1-(2-((2S,4R)-2-(3-chloro-2-fluorobenzylcarbamoyl)-4-fluoropyrrolidin-1-yl)-2-oxoethyl)-1H-indol-6-yl(phenyl)phosphinate], the IC50 is reported as < 1 µM. `CCOP(=O)(CC)c1ccc2c(C(C)=O)cn(CC(=O)N3C[C@H](F)C[C@H]3C(=O)NCc3cccc(Cl)c3F)c2c1` (stereo partly drawn) [Compound 24, ethyl 3-acetyl-1-(2-((2S,4R)-2-(3-chloro-2-fluorobenzylcarbamoyl)-4-fluoropyrrolidin-1-yl)-2-oxoethyl)-1H-indol-6-yl(ethyl)phosphinate] was tested, and the IC50 was < 1 µM. `CC(=O)c1cn(CC(=O)N2C[C@H](F)C[C@H]2C(=O)NCc2cccc(Cl)c2F)c2cc(P(=O)(O)c3ccccc3)ccc12` [Compound 25, 3-acetyl-1-(2-((2S,4R)-2-(3-chloro-2-fluorobenzylcarbamoyl)-4-fluoropyrrolidin-1-yl)-2-oxoethyl)-1H-indol-6-yl(phenyl)phosphinic acid] was tested, and the IC50 was < 1 µM. For `CC(=O)c1cn(CC(=O)N2C[C@H](F)C[C@H]2C(=O)NCc2cccc(Cl)c2F)c2cc(P(=O)(OCOC(=O)C(C)(C)C)OCOC(=O)C(C)(C)C)ccc12` [Compound 26, ((3-acetyl-1-(2-((2S,4R)-2-(3-chloro-2-fluorobenzylcarbamoyl)-4-fluoropyrrolidin-1-yl)-2-oxoethyl)-1H-indol-6-yl)phosphoryl)bis(oxy)bis (methylene) bis(2,2-dimethylpropanoate)], the IC50 was < 1 µM. For `CCP(=O)(O)c1ccc2c(C(C)=O)cn(CC(=O)N3C[C@H](F)C[C@H]3C(=O)NCc3cccc(Cl)c3F)c2c1` [Compound 27, 3-acetyl-1-(2-((2S,4R)-2-(3-chloro-2-fluorobenzylcarbamoyl)-4-fluoropyrrolidin-1-yl)-2-oxoethyl)-1H-indol-6-yl(ethyl)phosphinic acid], the IC50 was < 1 µM.
